Data reported in BindingDB's records for patent US11691969 (Ribon Therapeutics, 2023).

Target: T1, Protein mono-ADP-ribosyltransferase TIPARP (Homo sapiens, UniProt Q7Z3E1)
T1 sequence (Q7Z3E1 whole entry): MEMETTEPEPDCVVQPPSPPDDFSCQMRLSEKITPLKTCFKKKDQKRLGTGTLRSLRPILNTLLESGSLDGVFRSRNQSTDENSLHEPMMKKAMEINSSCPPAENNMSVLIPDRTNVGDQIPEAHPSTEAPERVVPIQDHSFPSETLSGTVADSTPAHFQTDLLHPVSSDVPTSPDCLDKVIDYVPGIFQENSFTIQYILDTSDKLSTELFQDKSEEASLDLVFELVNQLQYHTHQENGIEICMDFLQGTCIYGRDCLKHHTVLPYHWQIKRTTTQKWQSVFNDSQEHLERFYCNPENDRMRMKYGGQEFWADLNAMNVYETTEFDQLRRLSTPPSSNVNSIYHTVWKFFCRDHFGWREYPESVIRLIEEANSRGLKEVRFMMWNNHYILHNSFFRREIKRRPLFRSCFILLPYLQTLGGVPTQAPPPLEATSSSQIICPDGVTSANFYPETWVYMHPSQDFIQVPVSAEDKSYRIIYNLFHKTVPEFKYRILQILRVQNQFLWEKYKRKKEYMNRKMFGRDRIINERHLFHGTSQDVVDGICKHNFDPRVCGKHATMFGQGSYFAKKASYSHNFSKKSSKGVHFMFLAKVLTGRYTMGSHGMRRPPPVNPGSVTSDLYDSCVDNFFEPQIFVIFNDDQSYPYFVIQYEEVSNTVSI
Test: Enzymatic Assay
Experimental: Displacement of Probe A, a biotinylated probe binding to the TIPARP active site, was measured using a time-resolved fluorescence energy transfer (TR-FRET) assay. 20 nL of a dose response curve of each test compound was spotted in black 384-well polystyrene proxiplates (Perkin Elmer) using a Mosquito (TTP Labtech). Reactions were performed in a 8 μl volume by adding 6 μL of TIPARP and Probe A in assay buffer (20 mM HEPES pH=8, 100 mM NaCl, 0.1% bovine serum albumin, 2 mM DTT and 0.002% Tween20), incubating with test compound at 25° C. for 30 min, then adding 2 μL of ULight-anti 6×His and LANCE Eu-W1024 labeled streptavidin (Perkin Elmer). The final concentrations of TIPARP and Probe A were 6 nM and 2 nM, respectively. The final concentration of ULight-anti 6×His and LANCE Eu-W1024 labeled streptavidin were 4 nM and 0.25 nM, respectively. Reactions were incubated at 25° C. for an additional 30 min, then read on an Envision platereader equipped with a LANCE/DELFIA top mirror (Perkin Elmer) using excitation of 320 nm and emission of 615 nm and […] with a […]. The ratio of the 665/615 nm emission were calculated for each well to determine the amount of complex of TIPARP and Probe Ain each well. […]

In the case of `C[C@@H](CO[C@H]1CCN(C2CCN(c3ncc(C(F)(F)F)cn3)CC2)C1=O)Nc1cn[nH]c(=O)c1Br` [US11691969, Example 23], the IC50 is reported as “in the range around 550 nM”.
